Source: patent publication US20150094283A1, “COMBINATION” (GlaxoSmithKline LLC, priority 2010, published 2015)

Test system: SKOV3 tumor xenografts (human ovarian carcinoma)
Test: Growth of SKOV3 tumor xenografts in SCID mice (tumor growth inhibition)
Type: in vivo
Settings: PO, compared to vehicle treated mice
Protocol: Female SCID mice were implanted subcutaneously with 5×10^6 SKOV3 cells (human ovarian carcinoma). When the tumor volume reached 300-400 mm^3, mice were block randomized to different treatment groups (n=8 mice/group). Mice received the AKT inhibitor, Compound C as the free base, at 10 or 30 mg/kg, once daily (SID) for 21 days in 20% PEG-400, 1% DMSO in water. The VEGFR inhibitor, Compound A as the monohydrochloride salt, was administered at 100 mg/kg, twice/day (BID) for 21 days either alone or in combination with the AKT inhibitor. Mice were weighed and tumors measured by calipers twice weekly. Tumor volumes were calculated using the formula: tumor volume=(Length×Width^2)/2. The percentage of tumor growth inhibition was calculated on each day of tumor measurement using the formula: 100×[1−(average growth of the compound-treated tumors/average growth of vehicle-treated control tumors)]. Data is plotted as mean±sem for tumor volume for each group.

Question: For `Cc1ccc(Nc2nccc(N(C)c3ccc4c(C)n(C)nc4c3)n2)cc1S(N)(=O)=O` [Compound A, 5-[[4-[(2,3-dimethyl-2H-indazol-6-yl)methylamino]-2-pyrimidinyl]amino]-2-methylbenzenesulfonamide, reference compound], which “Tumor Growth Inhibition” value (Compound A (monohydrochloride salt) 100 mg/kg, BID x21 d, 100 mg/kg) is on record?
Answer: Its value is 47%.

Question: Which “Tumor Growth Inhibition” value (Compound C (free base) 10 mg/kg, SID x21 d, 10 mg/kg) does the source give for `Cn1ncc(Cl)c1-c1cc(C(=O)N[C@H](CN)Cc2ccc(F)c(F)c2)oc1Cl` [Compound C, N-{(1S)-2-amino-1-[(3,4-difluorophenyl)methyl]ethyl}-5-chloro-4-(4-chloro-1-methyl-1H-pyrazol-5-yl)-2-furancarboxamide] here?
Answer: The value was 86%.

Question: And the “Tumor Growth Inhibition” value (Compound C (free base) 30 mg/kg, SID x21 d, 30 mg/kg)?
Answer: The value was 67%.
